Values of other authors as cited in publication PMC11856108, “Capsaicin (But Not Other Vanillins) Enhances Estrogen Binding to Its Receptor: Implications for Power Sports and Cancers” (Life, 2025).
Read-outs that look alike come from different tables or passages of the source.

What was measured:
Conditions in all cases: cited from earlier work
Mice [1] = test system: Mice; parameters: method as in PMID 23536811
Human (male) = test system: Human (male); parameters: method as in PMID 8926537
Mice [2] = test system: Mice; parameters: method as in PMID 23958300
Human HepG2 cells [3] = test system: Human HepG2 cells; parameters: method as in PMID 30987128
Human HepG2 cells [4] = test system: Human HepG2 cells; parameters: method as in PMID 25621172
Human [5] = test system: Human; parameters: method as in PMID 25621172
Human [6] = test system: Human; parameters: method as in PMID 30668390
[7] = test system: Human (prostate cancer cells); parameters: method as in PMID 19705615
[8] = test system: Human nasopharyngeal carcinoma; parameters: method as in PMID 28644386
Human (NSCLC cells) = test system: Human (NSCLC cells); parameters: method as in PMID 24926985
Mice [9] = test system: Mice; parameters: method as in PMID 38700794

COc1cc(CNC(=O)CCCC/C=C/C(C)C)ccc1O [Capsaicin, trans-8-methyl-N-vanillyl-6-nonenamide]
Capsaicin Upregulates (Mice [1]): >Ca^2+ ion release into the cell via TRPV-1 activation >Muscle actin–myosin interaction >Force generation >Intramuscular triglyceride consumption | Capsaicin Upregulates (Human (male)): >Fat metabolism through neuroadrenergic effects of TRPV-1 activation | Capsaicin Upregulates (Mice [2]): >Glucose uptake via AMPK activation and increasing p38 MAPK phosphorylation >Stimulation of ROS generation | Capsaicin Upregulates (Human HepG2 cells [3]): >Activation of AMPK pathway | Downregulates or Inhibits (Human HepG2 cells [3]): > Lipogenesis > Inhibition of AKT/mTOR pathway | Cancer-Related Effects (Human HepG2 cells [4]): >Sensitizes human cancer cells to cytocidal effects of chemotherapeutic agents >Selectivity to kill cancer cells with minimal damage to normal cells | Downregulates or Inhibits (Human HepG2 cells [4]): >MDR-1 pathway → downregulates MDR-1 transcription (improves sensitivity) | Cancer-Related Effects (Human [5]): >Induces apoptosis | Downregulates or Inhibits (Human [5]): >Bax/Bcl2 pathway → decreased expression of Bcl-2 (prosurvival gene) | Upregulates (Human [5]): >Bax/Bcl2 pathways → increased expression of Bax (apoptotic gene) | Cancer-Related Effects (Human [6]): >Inhibits cell proliferation | Downregulates or Inhibits (Human [6]): >Cell cycle arrest in G0/G1 and G2/M phase >Suppresses ROS production | Upregulates (Human [6]): >Increase in reduced glutathione and DPPH | Cancer-Related Effects [7]: >Induces apoptosis | Upregulates [7]: >Cleavage of procaspase-3 to caspase-3 >Interaction with caspase-1 >TRPV1-mediated Ca+ influx | Cancer-Related Effects [8]: >Regulation of autophagic pathways | Upregulates [8]: >Increases levels of LC3-II and Atg5 >Enhances p62 and Fap-1 degradation | Cancer-Related Effects (Human (NSCLC cells)): >Inhibition of tumor angiogenesis and metastasis | Downregulates or Inhibits (Human (NSCLC cells)): >VEGF expression | Upregulates (Human (NSCLC cells)): >Activates p53-SMAR1 positive feedback loop >Decreases endothelial cell migration and network reformation | Cancer-Related Effects (Mice [9]): >Ameliorated changes to the histological structure, prostate weight and prostate index (prostate/body weight ratio) | Downregulates or Inhibits (Mice [9]): >TGF-β1/Smad signaling pathway → expression of E-cadherin, TGFBR2, TGF-β1 and p-Smad2/3 >IGF-1/AKT signaling pathway → expression of IGF-1, IGF-1R, p-AKT and RAGE >Androgen signaling pathway → expression of 5-αreductase type II, AR and PSA | Upregulates (Mice [9]): >TGF-β1/Smad signaling pathway → expression of N-cadherin, vimentin, fibronectin >TRPV-1-mediated apoptosis
